Experimental data as given in BindingDB's records for patent US20240300941 (Zhuhai Yufan Biotechnologies, 2024).

Each compound was assayed against Mitogen-activated protein kinase kinase kinase kinase 1 (Homo sapiens, UniProt Q92918) (assay: HPK1 ADP-Glo Enzyme Assay).
Method: The buffer used in the enzyme assay contains 5 mM MOPS (pH=7.2), 2.5 mM β-Glycerol Phosphate, 0.4 mM EDTA, 1 mM EGTA, 0.05 mM DTT, 5 mM MgCl2. The compound was dissolved in 100% DMSO at the concentration was 10 mM. The initial concentration of the test was 5 uM, and ten data points were diluted by three-fold gradient, and each point was repeatedly measured twice. The HPK1 protein was purchased from Thermo (Cat. No. PV6355) and diluted to 2× stock solution at the concentration of 10 nM (the final concentration of the enzyme assay was 5 nM). 2.5 µl of 2×HPK1 protein was added to each well of the plate containing the test compound, centrifuged at 1000 rpm for 30 seconds, and then incubated at 25° C. for 15 minutes. MBP protein was purchased from Millipore (Cat. No. 13-110) and ATP was purchased from Sigma (Cat. No. A7699-5G) and the two were formulated into 2× working solutions at concentrations of 4 uM and 80 uM. Added 2.5 μl mixture of 2×MBP and ATP, centrifuged at 1000 rpm for 30 seconds, then incubated at 25° C. for 90 minutes. Then added 5 ul of ADP-Glo (Promega, Cat. No. V9102) to the assay plate and incubated […] at 25° C. for 60 minutes. Finally, 10 ul of the kinase assay reagent (Promega, Cat. No. V9102) was added to the assay plate, centrifuged at 1000 rpm for 30 seconds at 25° C. for 60 minutes, and the […] was determined.

Mitogen-activated protein kinase kinase kinase kinase 1, sequence (Q92918 whole entry): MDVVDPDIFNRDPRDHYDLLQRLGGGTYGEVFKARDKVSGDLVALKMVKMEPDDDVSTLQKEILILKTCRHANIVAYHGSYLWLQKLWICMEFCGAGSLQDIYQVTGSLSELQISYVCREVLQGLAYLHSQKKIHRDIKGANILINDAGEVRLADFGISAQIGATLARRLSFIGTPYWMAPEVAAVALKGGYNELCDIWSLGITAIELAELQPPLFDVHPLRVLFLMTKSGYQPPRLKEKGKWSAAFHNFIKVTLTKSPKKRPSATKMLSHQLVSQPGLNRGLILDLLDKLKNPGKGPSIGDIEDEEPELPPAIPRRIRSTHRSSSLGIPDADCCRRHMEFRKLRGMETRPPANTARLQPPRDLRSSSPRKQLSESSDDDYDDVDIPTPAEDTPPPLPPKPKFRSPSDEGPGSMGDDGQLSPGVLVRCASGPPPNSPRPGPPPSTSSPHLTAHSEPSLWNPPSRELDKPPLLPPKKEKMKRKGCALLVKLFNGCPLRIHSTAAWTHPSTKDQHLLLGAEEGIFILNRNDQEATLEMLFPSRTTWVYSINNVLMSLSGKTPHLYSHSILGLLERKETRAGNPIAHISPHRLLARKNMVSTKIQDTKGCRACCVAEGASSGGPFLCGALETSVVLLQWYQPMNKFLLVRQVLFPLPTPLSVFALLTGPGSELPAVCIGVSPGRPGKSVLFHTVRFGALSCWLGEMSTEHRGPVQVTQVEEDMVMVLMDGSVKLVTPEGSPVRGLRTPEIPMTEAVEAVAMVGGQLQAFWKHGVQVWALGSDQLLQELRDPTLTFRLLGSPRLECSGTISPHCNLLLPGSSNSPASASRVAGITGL

IC50 [nM] | Structure (SMILES)
< 100 | CN1CCC(c2ncc(-c3cnc(N)c(OCc4ccnc(C#CC(C)(C)O)c4)c3)s2)CC1 [US20240300941, Compound A10]
100 to 1000 | Cc1nc(C2CCN(C)CC2)sc1-c1cnc(N)c(OCc2cccc(C#CC(C)(C)O)c2)c1 [US20240300941, Compound A62]
< 100 | CN1CCC(c2ncc(-c3cnc(N)c(OCc4cccc(C#CC5(O)CCCC5)c4)c3)s2)CC1 [US20240300941, Compound A34]
< 100 | Nc1ncc(-c2cnc(C3CCOCC3)s2)cc1OCc1ccncc1 [US20240300941, Compound A13]
< 100 | CC(C)c1ncc(-c2cnc(N)c(OCc3cccc(C#CC(C)(C)O)c3)c2)s1 [US20240300941, Compound A41]
< 100 | Nc1ncc(-c2cnc(C3CCNCC3)s2)cc1OCc1ccncc1 [US20240300941, Compound A7]
< 100 | CC(C)(O)C#Cc1cccc(COc2cc(-c3cnc(C4CCNCC4)s3)cnc2N)c1 [US20240300941, Compound A42]

Continued, compound first:

Structure (SMILES) | IC50 [nM]
CN1CCC(n2cc(-c3cnc(N)c(OCc4ccncc4)n3)c(N)n2)CC1 [US20240300941, Compound A14] | 100 to 1000
CN1CCC(c2ncc(-c3cnc(N)c(OCc4cccc(C#CC5(O)CCCCC5)c4)c3)s2)CC1 [US20240300941, Compound A38] | > 1000
Nc1ncc(-c2cnc(C3CCCCC3)s2)cc1OCc1ccncc1 [US20240300941, Compound A37] | < 100
CN1CCC(c2ncc(-c3cnc(N)c(OCc4cccc(C#CC(C)(C)O)c4)c3)s2)CC1 [US20240300941, Compound A3] | < 100
CN1CCC(c2ncc(-c3cnc(N)c(OCc4cccc(C#CC5(O)CCC5)c4)c3)s2)CC1 [US20240300941, Compound A40] | < 100
CC(C)c1ncc(-c2cnc(N)c(OCc3ccncc3)c2)s1 [US20240300941, Compound A36] | < 100
CN1CCN(c2ncc(-c3cnc(N)c(OCc4ccncc4)c3)s2)CC1 [US20240300941, Compound A12] | < 100
CN1CCC(c2ncc(-c3cnc(N)c(OC(C)(C)c4ccncc4)c3)s2)CC1 [US20240300941, Compound A6] | > 1000
COc1ccc(COc2cc(-c3cnc(C4CCN(C)CC4)s3)cnc2N)cc1 [US20240300941, Compound A9] | > 1000
CN1CCC(c2ncc(-c3cnc(N)c(OCc4ccnc(Cl)c4)c3)s2)CC1 [US20240300941, Compound A8] | < 100
